Test results as given in US10946012B2, “Methods for inducing tumor regression, inhibiting tumor growth, and inducing apoptosis in breast tumors with geranylgeranyltransferase I inhibitors” (H. Lee Moffitt Cancer Center and Research Institute, Inc., priority 2009, dated 2021).

How the values were obtained:
[1] = tested on: MDA-MB-468 breast cancer cells; assay: Cell cycle analysis in MDA-MB-468 cells; format: cell-based, human; details: 50 μM, control 51%
Experimental: Cell cycle analysis based on DNA content was performed as described previously. Liang, J., et al., PKB/Akt phosphorylates p27, impairs nuclear import of p27 and opposes p27-mediated G1 arrest, Nat Med 8:1153-60 (2002). At each time point, cells were harvested, counted, and washed twice with PBS. Cells (2-3×10^6) were suspended in 0.5 ml PBS, fixed in 5 ml of 70% ethanol overnight at −20° C., centrifuged, re-suspended again in 1 ml of propidium iodide staining solution (50 μg/ml propidium iodide, 100 units/ml RNase A and 1 mg/ml of glucose in PBS), and incubated at room temperature for 30 min. The cells were then analyzed for cell cycle distribution using FACScan (BD Biosciences) and ModFit LT cell cycle analysis software (Verity Software, Topsham, Me.).

[2] = tested on: MDA-MB-231 breast cancer tumors; assay: Anti-tumor activity in the nude mouse tumor xenograft model; format: in vivo, nude mice; details: 100 mg/kg daily i.p.
Experimental: Nude mice (nu/nu, Charles River, Wilmington, Mass.) were maintained in accordance with the Institutional Animal Care and Use Committee (IACUC) procedures and guidelines. MDA-MB-231 cells were harvested via trypsinization, pelleted at 805×g for 5 min, and re-suspended in a 50:50 mixture of sterile PBS and Matrigel (BD Biosciences) at 10×10^6 cells per 100 μl. A volume of 100 μl (˜10×10^6 cells) was injected orthotopically into the upper mammary fat pads of nude mice. The tumor xenografts were monitored by electronic caliper measurements and tumor volume (V) was calculated using the formula V=W^2L/2, where width (W) is […]. When the tumors reached ˜100 mm^3, the animals were randomized and injected intraperiteoneally daily with vehicle (70% DMSO), or 100 mg/kg GGTI-2417 or GGTI-2418, or every third day with GGTI-2418 (200 mg/kg. Tumors were measured every third day for 12-18 days.

[3] = tested on: MDA-MB-468 breast cancer cells; assay: Trypan Blue exclusion assay (proliferation, cell death) in MDA-MB-468 cells; format: cell-based, human
Experimental: (§1) Human MDA-MB-468 and MDA-MB-231 breast cancer cells and murine NIH 3T3 cells were obtained from the ATCC and cultured in DMEM medium. Human SK-Br3 and BT-474 breast cancer cells (ATCC) were cultured in McCoy's 5a medium and Hybri-Care medium, respectively. Mouse embryonic fibroblast (MEF) cells from p27 wild-type and p27 null mice were grown in DMEM. All media were supplemented with 10% fetal calf serum, 10 units/ml penicillin, and 10 μg/ml streptomycin. Subconfluent cells were treated with different concentrations of GGTI, FTI or DMSO vehicle for specific time periods. After treatment, cells were harvested by trypsinization.
Pre-designed siRNA to p27 (Cat #118714) and the negative control (Cat #4611) were purchased from Ambion (Austin, Tex.). Twenty-four hours before transfection, MDA-MB-468 cells were plated onto twelve-well plates in fresh DMEM medium containing 10% FBS and no antibiotics. Transient transfection of siRNA was carried out using Oligofectamine reagent (Invitrogen, Carlsbad, Calif.), following the manufacturer's instructions. In brief, 5 nM of p27 siRNA or control siRNA were mixed with Opti-MEM medium (Invitrogen) in such a way so that the total volume went to 90 μl, and then complexed with a mixture of 2 μl of Oligofectamine and 8 μl Opti-MEM; the total volume of RNA:Oligofectamine complex was 100 μl. The RNA:Oligofectamine complex was then incubated for 20 min at room temperature before adding to the cells. Before transfection, the old medium was discarded, cells were washed once with fresh Opti-MEM and 400 μl of fresh Opti-MEM placed into each well before adding the RNA:Oligofectamine complex to each well. The final diluted volume on each well was 500 μl. After 8 h, 500 μl DMEM containing 30% FBS was added to each well and cells were further incubated for 40 h.
(§2) Adherent cells were harvested by trypsinization and diluted with 0.4% Trypan Blue dye and counted on a hemacytometer. Cells excluding the dye were scored as live cells, whereas cells absorbing the dye were scored as dead cells. Cell proliferation was determined by dividing the number of live cells in the treated sample by the number of live cells in the control, and the degree of cell death was expressed as percentage of dead cells of the total cell number.

[4] = tested on: p27 null MEFs; assay: Trypan Blue exclusion assay in p27 null MEFs; format: cell-based, mouse; details: 50 μM, 72 h
Experimental: as §1, §2

[5] = tested on: MDA-MB-231, SK-Br3 and BT-474 breast cancer cells; assay: Effects in other human breast cancer cell lines; format: cell-based; details: 50 μM; all three cell lines
Experimental: as §1
To prepare whole cell lysates, cells were trypsinized, washed with phosphate buffered saline (PBS) twice, and lysed in 30 mM Hepes, pH 7.5, 10 mM NaCl, 5 mM MgCl2, 25 mM NaF, 1 mM EGTA, 1% Triton-X-100, 10% glycerol, protease inhibitor cocktail, 2 mM PMSF, 2 mM Na3VO4, and 6.4 mg/ml p-nitrophenylphosphate. […] The protein concentration was determined by the Bradford assay. […] Select bands were quantified using AlphaEaseFC densitometry software (AlphaInnotech, San Leandro, Calif.).
Adherent cells were harvested by trypsinization and diluted with 0.4% Trypan Blue dye and counted on a hemacytometer. Cells excluding the dye were scored as live cells, whereas cells absorbing the dye were scored as dead cells. […]

COC(=O)[C@H](CC(C)C)NC(=O)N1CCN(Cc2nc[nH]c2C)C(=O)[C@@H]1Cc1ccccc1 [GGTI-2417] was tested, and the “fraction of cells in G0/G1” value [1] was 78%, the tumor growth inhibition [2] was 76% and the “tumor cell death in the presence of p27 siRNA” value ([3]; 5 nM p27 siRNA, 50 μM GGTI-2417 or 1 μM taxol) was “unable to induce tumor cell death”. It also gave a tumor cell death ([3]; 50 μM, absence of p27 siRNA, vehicle 10.3%) of 37.2%, an IC50 ([3]; MDA-MB-468, 48 h, read-out: IC50, inhibition of cell proliferation) of roughly 4 µM and an inhibition of proliferation ([4]; MEFs lacking p27) of 61.6±8.1%. The cell death ([4]; p27 null MEFs, basal 27.5±2.1%) was “did not increase the number of dead cells”, the cell proliferation [5] was “inhibited cell proliferation” and the p27 protein levels [5] was “induced p27 protein levels”.
